Reference: patent US8252825B2, “Angiotensin II receptor antagonists” (NicOx, priority 2007, dated 2012)

Tests used:
[1] = tested on: conscious telemetered dogs; experiment: Systolic blood pressure lowering after oral administration to conscious telemetered dogs; type: in vivo, dog; settings: 10 mg/kg
Text: Compounds 1 and 2 shown below were studied for systolic blood pressure lowering when orally administered to conscious telemetered dogs.

[2] = tested on: isolated rabbit thoracic aorta preparations; experiment: Vessel relaxation assay in isolated rabbit thoracic aorta rings; type: cell-based; settings: Oryctolagus cuniculus; rabbit aortic rings precontracted with noradrenaline, functional endothelium
Experimental: The ability of the compounds to induce vasorelaxation was tested in vitro in isolated rabbit thoracic aorta preparations (Wanstall J. C. et al., Br. J. Pharmacol., 134:463-472, 2001). Male New Zealand rabbits were anaesthetized with thiopental-Na (50 mg/kg, iv), sacrificed by exsanguinations and then the thorax was opened and the aorta dissected. Aortic ring preparations (4 mm in length) were set up in physiological salt solution (PSS) at 37° C. in small organ chambers (5 ml). The composition of PSS was (mM): NaCl 130, NaHCO3 14.9, KH2PO4 1.2, MgSO4 1.2, HEPES 10, CaCl2, ascorbic acid […] and glucose 1.1 (95% O2/5% CO2; pH 7.4). Each ring was mounted under 2 g passive tension. Isometric tension was recorded with a Grass transducer (Grass FT03) attached to a BIOPAC MP150 System. Preparations were allowed to equilibrate for 1 h, and then contracted submaximally with noradrenaline (NA, 1 μM) and, when the contraction was stable, acetylcholine (ACh, 10 μM) was added. A relaxant response to ACh indicated the presence of a functional endothelium. […] When a stable precontraction was reached, a cumulative concentration-response curve to either of the vasorelaxant agents was obtained in the presence of a functional endothelium. Each arterial ring was exposed to only one combination of inhibitor and vasorelaxant. […]
Example 3 and 4 were evaluated for vessel relaxation.

SMILES | Approximate change in systolic blood pressure (mmHg), 1-6 h ([1]; 1-6 h) | Approximate change in systolic blood pressure (mmHg), 6-12 h ([1]; 6-12 h) | Approximate change in systolic blood pressure (mmHg), 12-18 h ([1]; 12-18 h) | EC50 [2]
CCCCc1nc(Cl)c(C(=O)OC(C)OC(=O)OCCCC[C@H](CO[N+](=O)[O-])O[N+](=O)[O-])n1Cc1ccc(-c2ccccc2-c2nnn[nH]2)cc1 (some centres unmarked) [Compound 1] | −14 mmHg | −7 mmHg | 3 mmHg | –
CCCCc1nc(Cl)c(C(=O)OC(C)OC(=O)OCCC(C)[C@@H](O[N+](=O)[O-])[C@@H](C)O[N+](=O)[O-])n1Cc1ccc(-c2ccccc2-c2nnn[nH]2)cc1 (stereo partly drawn) [Example 3, 1-[({[(4R,5R)-3-methyl-4,5-bis(nitrooxy)hexyl]oxy}carbonyl)oxy]ethyl 2-butyl-4-chloro-1-{[2′-(1H-tetrazol-5-yl)biphenyl-4-yl]methyl}-1H-imidazole-5-carboxylate] | – | – | – | 8.5 µM
CCOc1nc2cccc(C(=O)OC(C)(C)OC(=O)OCCC(C)[C@@H](O[N+](=O)[O-])[C@@H](C)O[N+](=O)[O-])c2n1Cc1ccc(-c2ccccc2-c2nnn[nH]2)cc1 (stereo partly drawn) [Example 4, 1-[({[(4R,5R)-3 Methyl-4,5-bis(nitrooxy)hexyl]oxy}carbonyl)oxy]-1-methylethyl 2-ethoxy-1-{[2′-(1H-tetrazol-5-yl)biphenyl-4-yl]methyl}-1H-benzimidazole-7-carboxylate] | – | – | – | 6.4 µM
